Our source for the dTm values is article PMC12136037, “Type II kinase inhibitors that target Parkinson’s disease–associated LRRK2” (Science Advances, 2025).

Assay in all cases: DSF 100 kinase selectivity screen;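 further: compound tested at 20 µM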
Holding throughout (assay type): binding

In test [1] the target is T1, ~100 representative kinases (Homo sapiens, UniProt P33981).
T1 construct: Recombinant protein kinase domains with a concentration of 2 μM
T1 sequence (P33981 1-857): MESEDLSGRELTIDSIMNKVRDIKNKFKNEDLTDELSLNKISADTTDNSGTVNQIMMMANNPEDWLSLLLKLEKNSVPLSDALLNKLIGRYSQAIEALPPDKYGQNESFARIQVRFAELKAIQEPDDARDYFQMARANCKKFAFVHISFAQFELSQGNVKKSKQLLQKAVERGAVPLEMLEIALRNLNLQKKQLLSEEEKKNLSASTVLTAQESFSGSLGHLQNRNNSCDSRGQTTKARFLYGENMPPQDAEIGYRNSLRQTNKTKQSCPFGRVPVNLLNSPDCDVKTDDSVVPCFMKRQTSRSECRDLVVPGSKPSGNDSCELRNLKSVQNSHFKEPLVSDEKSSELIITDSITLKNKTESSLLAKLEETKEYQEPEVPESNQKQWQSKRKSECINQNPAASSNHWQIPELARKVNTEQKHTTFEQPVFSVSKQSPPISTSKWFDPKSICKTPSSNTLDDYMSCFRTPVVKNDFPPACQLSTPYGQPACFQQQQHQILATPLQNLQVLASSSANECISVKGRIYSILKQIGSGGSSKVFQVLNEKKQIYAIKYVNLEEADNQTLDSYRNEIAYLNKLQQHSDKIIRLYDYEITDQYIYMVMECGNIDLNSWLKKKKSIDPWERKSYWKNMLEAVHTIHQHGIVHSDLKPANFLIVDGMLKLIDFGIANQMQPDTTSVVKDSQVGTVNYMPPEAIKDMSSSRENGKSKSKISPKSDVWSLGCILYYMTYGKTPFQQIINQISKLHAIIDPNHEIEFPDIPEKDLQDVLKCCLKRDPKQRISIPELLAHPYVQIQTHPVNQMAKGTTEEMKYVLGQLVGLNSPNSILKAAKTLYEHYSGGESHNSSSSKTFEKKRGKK
As to conditions: Protein TTK; DSF; average of three replicates. A digest of the protocol:
(§1)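 Each kinase domain, at 2 μM, is mixed with 20 μM test compound and SYPRO Orange in Hepes (20 mM, pH 7.5) with 500 mM NaCl. Temperature is then raised at 3°C/min and fluorescence-monitored unfolding yields the melting temperature change, ΔTm in degrees Celsius.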

Test [2] concerns the target T2, ~100 representative kinases (Homo sapiens, UniProt P55201).
T2 construct: Recombinant protein kinase domains with a concentration of 2 μM
T2 sequence (P55201 1-1214): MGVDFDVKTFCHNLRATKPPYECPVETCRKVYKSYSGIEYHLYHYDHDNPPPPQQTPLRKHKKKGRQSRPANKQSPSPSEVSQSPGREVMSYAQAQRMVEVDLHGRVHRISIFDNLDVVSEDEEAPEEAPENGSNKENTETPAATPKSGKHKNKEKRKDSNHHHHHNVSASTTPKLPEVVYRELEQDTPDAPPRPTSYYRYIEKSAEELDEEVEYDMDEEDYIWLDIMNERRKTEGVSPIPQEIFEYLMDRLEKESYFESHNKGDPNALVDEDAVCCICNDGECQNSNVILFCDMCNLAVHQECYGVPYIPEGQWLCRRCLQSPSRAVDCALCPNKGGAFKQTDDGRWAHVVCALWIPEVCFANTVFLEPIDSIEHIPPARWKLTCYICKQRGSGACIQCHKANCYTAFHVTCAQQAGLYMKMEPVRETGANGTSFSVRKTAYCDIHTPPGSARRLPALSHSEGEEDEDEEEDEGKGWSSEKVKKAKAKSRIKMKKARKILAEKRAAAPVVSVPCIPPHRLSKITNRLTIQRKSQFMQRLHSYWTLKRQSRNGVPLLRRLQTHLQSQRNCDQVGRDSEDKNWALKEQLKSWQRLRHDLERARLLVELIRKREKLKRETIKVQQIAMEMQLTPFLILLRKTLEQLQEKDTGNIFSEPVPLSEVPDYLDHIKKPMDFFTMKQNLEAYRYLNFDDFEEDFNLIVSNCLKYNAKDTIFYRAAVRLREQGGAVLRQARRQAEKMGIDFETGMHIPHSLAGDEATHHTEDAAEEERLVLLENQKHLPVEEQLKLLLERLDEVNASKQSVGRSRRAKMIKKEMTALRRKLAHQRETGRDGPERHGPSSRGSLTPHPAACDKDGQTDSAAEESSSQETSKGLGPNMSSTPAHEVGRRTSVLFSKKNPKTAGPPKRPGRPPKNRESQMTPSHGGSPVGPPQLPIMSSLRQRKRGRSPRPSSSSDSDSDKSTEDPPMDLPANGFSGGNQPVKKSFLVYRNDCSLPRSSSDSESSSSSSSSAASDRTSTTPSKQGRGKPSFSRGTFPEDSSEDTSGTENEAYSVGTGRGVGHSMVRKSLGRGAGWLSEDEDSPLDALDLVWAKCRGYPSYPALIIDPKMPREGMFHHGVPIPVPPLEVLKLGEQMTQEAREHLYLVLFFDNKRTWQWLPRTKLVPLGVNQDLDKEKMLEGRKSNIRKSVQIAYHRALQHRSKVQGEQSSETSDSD
As to conditions: Protein BRPF1; average of three replicates. Summed up: as §1

The target in test [3] is T3, ~100 representative kinases (Homo sapiens, UniProt Q13557).
T3 construct: Recombinant protein kinase domains with a concentration of 2 μM
T3 sequence (Q13557 whole entry, the tested form may be a part): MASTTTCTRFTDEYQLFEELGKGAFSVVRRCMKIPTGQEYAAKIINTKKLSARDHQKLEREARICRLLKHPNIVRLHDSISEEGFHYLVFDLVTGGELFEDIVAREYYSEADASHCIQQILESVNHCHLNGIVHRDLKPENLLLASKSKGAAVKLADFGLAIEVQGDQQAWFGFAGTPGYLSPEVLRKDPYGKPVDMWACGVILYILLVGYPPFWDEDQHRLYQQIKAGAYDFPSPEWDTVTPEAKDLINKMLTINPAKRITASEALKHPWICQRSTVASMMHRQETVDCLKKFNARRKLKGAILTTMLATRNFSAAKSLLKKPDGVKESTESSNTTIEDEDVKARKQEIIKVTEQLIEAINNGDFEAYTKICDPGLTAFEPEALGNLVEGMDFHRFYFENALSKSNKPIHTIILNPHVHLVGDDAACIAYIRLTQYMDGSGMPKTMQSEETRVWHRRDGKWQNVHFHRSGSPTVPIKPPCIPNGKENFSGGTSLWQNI
As to conditions: Protein CAMK2D; average of three replicates. Summed up: as §1

Test [4] addresses T4, ~100 representative kinases (Homo sapiens, UniProt Q8TD08).
T4 construct: Recombinant protein kinase domains with a concentration of 2 μM
T4 sequence (Q8TD08 1-544): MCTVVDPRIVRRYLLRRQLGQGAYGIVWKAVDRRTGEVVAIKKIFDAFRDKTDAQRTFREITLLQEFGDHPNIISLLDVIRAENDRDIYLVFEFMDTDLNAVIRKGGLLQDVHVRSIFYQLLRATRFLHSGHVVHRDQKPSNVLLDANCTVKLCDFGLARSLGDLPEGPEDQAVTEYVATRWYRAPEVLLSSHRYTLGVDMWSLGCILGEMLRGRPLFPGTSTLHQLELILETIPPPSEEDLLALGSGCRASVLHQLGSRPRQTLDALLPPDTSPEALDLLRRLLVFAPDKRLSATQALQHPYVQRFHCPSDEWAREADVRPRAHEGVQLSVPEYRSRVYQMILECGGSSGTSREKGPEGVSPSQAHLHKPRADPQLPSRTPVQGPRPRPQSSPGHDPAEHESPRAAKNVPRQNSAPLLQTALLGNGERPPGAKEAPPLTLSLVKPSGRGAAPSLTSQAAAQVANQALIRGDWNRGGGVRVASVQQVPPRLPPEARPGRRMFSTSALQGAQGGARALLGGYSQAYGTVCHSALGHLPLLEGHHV
As to conditions: protein MAPK15; average of three replicates. A digest of the protocol:
as §1

The target in test [5] is T5, ~100 representative kinases (Homo sapiens, UniProt Q96NX5).
T5 construct: Recombinant protein kinase domains with a concentration of 2 μM
T5 sequence (Q96NX5 whole entry, the tested form may be a part): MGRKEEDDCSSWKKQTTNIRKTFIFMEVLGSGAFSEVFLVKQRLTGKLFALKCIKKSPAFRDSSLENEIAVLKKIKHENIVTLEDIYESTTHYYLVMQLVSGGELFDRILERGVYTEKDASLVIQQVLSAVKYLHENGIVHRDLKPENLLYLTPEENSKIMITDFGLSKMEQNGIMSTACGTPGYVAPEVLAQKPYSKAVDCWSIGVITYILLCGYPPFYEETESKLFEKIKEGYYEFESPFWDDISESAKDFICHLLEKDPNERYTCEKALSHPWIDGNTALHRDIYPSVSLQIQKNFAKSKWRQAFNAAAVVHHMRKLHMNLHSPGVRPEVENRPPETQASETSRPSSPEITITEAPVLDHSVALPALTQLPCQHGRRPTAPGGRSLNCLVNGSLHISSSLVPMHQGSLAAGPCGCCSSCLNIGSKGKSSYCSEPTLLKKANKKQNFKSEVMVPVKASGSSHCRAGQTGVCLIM
As to conditions: Protein CAMK1G; average of three replicates. A digest of the protocol: as §1

Regarding `O=C(Nc1cccc(-c2c[nH]c3ncnc(N4CCOCC4)c23)c1)C1(C(=O)Nc2ccc(F)c(Br)c2)CC1` [Compound 19], the dTm in test [1] came to 9.93 K; in test [2], 2.17 K; in test [3], 1.25 K; in test [4] it was 11.25 K; in test [5], 5.35 K.

Consider `COc1cc(NC(=O)C2(C(=O)Nc3cccc(-c4c[nH]c5ncnc(N6CCOCC6)c45)c3)CC2)ccc1F` [Compound 21], for which the dTm is given as 7.84 K in test [1]; -0.32 K in test [2]; -0.00539 K in test [3]; 10.35 K in test [4]; 1.23 K in test [5].

For `Cc1cc(NC(=O)C2(C(=O)Nc3cccc(-c4c[nH]c5ncnc(N6CCOCC6)c45)c3)CC2)ccc1F` [Compound 20], the dTm in test [1] stood at 8.62 K; in test [2] it was 0.26 K; in test [3], 0.24 K; in test [4], 12.42 K; in test [5], 2.80 K.

As for `O=C(Nc1cccc(-c2c[nH]c3ncnc(N4CCOCC4)c23)c1)C1(C(=O)Nc2ccc(F)cc2F)CC1` [Compound 23], the dTm in test [1] is -5.86 K; in test [2], 0.18 K; in test [3] it was 0.16 K; in test [4], 6.01 K; in test [5], 1.64 K.

As for `Cc1ccc(-n2nc(C(C)(C)C)cc2NC(=O)Nc2cccc(-c3c[nH]c4ncnc(N5CCOCC5)c34)c2)cc1` [Compound 29], the dTm in test [1] is given as 4.46 K; in test [2] it was 0.08 K; in test [3], -0.40 K; in test [4], 16.65 K; in test [5], 3.88 K.

As for `Cc1ccc(NC(=O)C2(C(=O)Nc3cccc(-c4c[nH]c5ncnc(N6CCOCC6)c45)c3)CC2)cc1` [Compound 14], the dTm is 4.57 K in test [1]; -0.72 K in test [2]; 0.26 K in test [3]; 5.81 K in test [4]; 1.22 K in test [5].
